Patent US12552753B2, “Methods and compositions for targeting Tregs using CCR8 inhibitors” (Nanjing Immunophage Biomedical Co., Ltd., priority 2020, dated 2026)
Counter-ions that a name gives are not always drawn.

What follows are compounds tested against CCR8 (Homo sapiens, UniProt P51685) (assay: Tango assay (Tango-CCR8-Gal4-CHO-K1 cells, CCL1-stimulated, ONE-Glo luminescence)). Conditions: Tango Assay IC50, Inhibition of CCR8 Tango cell in vitro.
Sequence of CCR8 (P51685 whole entry, the tested form may be a part): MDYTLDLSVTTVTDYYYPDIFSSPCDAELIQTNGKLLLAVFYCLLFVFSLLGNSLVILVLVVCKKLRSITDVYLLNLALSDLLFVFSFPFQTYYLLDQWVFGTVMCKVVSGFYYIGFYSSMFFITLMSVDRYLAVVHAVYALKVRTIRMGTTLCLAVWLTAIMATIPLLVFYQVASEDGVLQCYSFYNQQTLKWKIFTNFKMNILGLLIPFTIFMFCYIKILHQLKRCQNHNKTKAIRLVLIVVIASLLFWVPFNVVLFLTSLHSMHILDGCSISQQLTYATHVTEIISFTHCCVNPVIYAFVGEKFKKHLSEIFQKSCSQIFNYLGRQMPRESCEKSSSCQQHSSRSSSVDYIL

| SMILES | IC50 [nM] |
| --- | --- |
| Cc1ccccc1C(=O)Nc1ccc(S(=O)(=O)N[C@H](C)C2CCN(C(=O)OC(C)(C)C)CC2)c(C(F)(F)F)c1 [Compound 188, (R)-tert-butyl 4-(1-(4-(2-methylbenzamido)-2-(trifluoromethyl)phenyl-sulfonamido)ethyl)piper-idine-1-carboxylate] | 302 |
| Cc1ccccc1C(=O)Nc1ccc(S(=O)(=O)Nc2ccc3c(c2)CN(C(=O)CN(C)C)CC3)c2ccccc12 [Compound 41, N-(4-(N-(2-(2-(dimethylamino)acetyl)-1,2,3,4-tetrahydroisoquinolin-7-yl)sulfamoyl)naphthalen-1-yl)-2-methylbenzamide] | > 10000 |
| Cc1ccccc1C(=O)Nc1ccc(S(=O)(=O)NC2CCNc3ccccc32)c2ccccc12 (stereo not shown) [Compound 30, 2-methyl-N-(4-(N-(1,2,3,4-tetrahydroquinolin-4-yl)sulfamoyl)naphthalen-1-yl)benzamide] | 73 |
| Cc1ccccc1C(=O)Nc1ccc(S(=O)(=O)NC(=O)c2ccccc2N2CCOCC2)c2ccccc12 [Compound 13, 2-methyl-N-(4-(N-(2-morpholinobenzoyl)sul-famoyl)naphthalen-1-yl)benzamide] | > 10000 |
| Cc1ccccc1C(=O)Nc1ccc(S(=O)(=O)NC(C)C2CC3CCC2CC3)c(C)c1C (stereo not shown) [Compound 182, N-(4-(N-(1-(bicyclo[2.2.2]octan-2-yl)ethyl)sulfamoyl)-2,3-dimethylphenyl)-2-methylbenzamide] | 61 |
| CN1CCCN(C(=O)C23CC(NS(=O)(=O)c4ccc5ccccc5c4)(C2)C3)CC1 [Compound 100, N-(3-(4-methyl-1,4-diazepane-1-carbonyl)bicyclo[1.1.1]pentan-1-yl)naphthalene-2-sulfonamide] | > 10000 |
| Cc1cc(S(=O)(=O)N[C@H](C)C2CCN(C)CC2)c(F)cc1NC(=O)c1ccccc1C [Compound 262, (R)-N-(5-fluoro-2-methyl-4-(N-(1-(1-methylpiperidin-4-yl)ethyl)sulfamoyl)phenyl)-2-methylbenzamide] | 5 |
| Cc1ccccc1C(=O)Nc1cc(Cl)c(S(=O)(=O)N[C@@H](C)C2CCNCC2)cc1Cl [Compound 243B, (S)-N-(2,5-dichloro-4-(N-(1-(piperidin-4-yl)ethyl)sulfamoyl)phen-yl)-2-methylbenzamide hydrochloride] | > 100000 |
| Cc1ccccc1C(=O)Nc1ccc(S(=O)(=O)NC(C)c2cccc(N)c2)c2ccccc12 (stereo not shown) [Compound 72A, N-(4-(N-(1-(3-aminophenyl)ethyl)sul-famoyl)naphthalen-1-yl)-2-methylbenzamide hydrochloride] | 1140 |
| Cc1ccccc1C(=O)Nc1ccc(S(=O)(=O)NC(=O)c2ccccc2N2CCCCC2)c2ccccc12 [Compound 12, 2-methyl-N-(4-(N-(2-(piperidin-1-yl)benzoyl)sulfamoyl)naphthalen-1-yl)benzamide] | > 10000 |
| Cc1cc(S(=O)(=O)N[C@H](C)C2CCNCC2)ccc1NC(=O)C12CCC(CC1)CC2 [Compound 309, hydrochloride] | 10 |
| Cc1ccccc1C(=O)Nc1cc(F)c(S(=O)(=O)N[C@H](C)C2CCN(C)CC2)cc1Cl [Compound 263, (R)-N-(2-chloro-5-fluoro-4-(N-(1-(1-methylpiperidin-4-yl)ethyl)sulfamoyl)phenyl)-2-methylbenzamide] | 2 |
| CC(=O)Nc1ccccc1C(C)NS(=O)(=O)c1ccc(NC(=O)c2ccccc2C)c2ccccc12 (stereo not shown) [Compound 125, N-(4-(N-(1-(2-acetamidophenyl)ethyl)sulfamoyl)naphthalen-1-yl)-2-methylbenzamide] | > 10000 |
| Cc1ccccc1C(=O)Nc1cc(C)c(S(=O)(=O)N[C@H](C)C2CCN(C)CC2)cc1Cl [Compound 267A, (R)-N-(2-chloro-5-methyl-4-(N-(1-(1-methylpiperidin-4-yl)ethyl)sulfamoyl)phenyl)-2-methylbenzamide hydrochloride] | 2 |
| Cc1ccccc1C(=O)Nc1cc(Cl)c(S(=O)(=O)N[C@H](C)C2CCN(C)CC2)cc1Cl [Compound 306, (R)-N-(2,5-dichloro-4-(N-(1-(1-methylpiperidin-4-yl)ethyl)sulfamoyl)phenyl)-2-methylbenzamide hydrochloride] | 6 |
| CCCN1CCN(c2c(F)cccc2NS(=O)(=O)c2ccc(NC(=O)c3ccccc3C)c3ccccc23)CC1 [Compound 92, N-(4-(N-(3-fluoro-2-(4-propylpiperazin-1-yl)phenyl)sulfamoyl)naphthalen-1-yl)-2-methylbenzamide] | > 10000 |
| Cc1cc(S(=O)(=O)N[C@H](C)C2CCN(C(=O)OC(C)(C)C)CC2)c(C)cc1NC(=O)c1ccccc1C [Compound 285, tert-butyl (R)-4-(1-((2,5-dimethyl-4-(2-methylbenzamido)phenyl)sulfonamido)ethyl)piperidine-1-carboxylate] | > 100000 |
| Cc1ccccc1C(=O)Nc1ccc(S(=O)(=O)NC(C)CC2CCN(C(=O)OC(C)(C)C)CC2)c2ccccc12 (stereo not shown) [Compound 127, tert-butyl 4-(2-(4-(2-methylbenzamido)naphthalene-1-sulfonamido)propyl) piperidine-1-carboxylate] | 575 |
| Cc1cc(S(=O)(=O)NC(C)C23CCN(CC2)CC3)ccc1NC(=O)c1ccccc1C (stereo not shown) [Compound 241, 2-methyl-N-(2-methyl-4-(N-(1-(quiuclidin-4-yl)ethyl)sulfamoyl)phen-yl)benzamide] | 256 |
| Cc1ccccc1C(=O)Nc1cc(F)c(S(=O)(=O)NC2CCNCC2)cc1Cl [Compound 311, N-(2-chloro-5-fluoro-4-(N-(piperidin-4-yl)sulfamoyl)phenyl)-2-methylbenzamide hydrochloride] | > 100000 |

Results, then the compound that gave them:

| IC50 [nM] | SMILES |
| --- | --- |
| 1 | Cc1cc(S(=O)(=O)N[C@H](C)C2CCN(C3CCCC3)CC2)ccc1NC(=O)c1ccccc1C [Compound 247, (R)-N-(4-(N-(1-(1-cyclopentylpiperidin-4-yl)ethyl)sulfamoyl)-2-methylphenyl)-2-methylbenzamide] |
| > 10000 | CC(NS(=O)(=O)c1ccc2[nH]c(=O)[nH]c2c1)C1CCCCC1 (stereo not shown) [Compound 80, N-(1-cyclohexylethyl)-2-oxo-2,3-dihydro-1H-benzo[d]imidazole-5-sulfonamide] |
| 105 | Cc1cc(S(=O)(=O)N[C@H](C)C2CCNCC2)ccc1NC(=O)c1ccsc1C [Compound 250A, (R)-2-methyl-N-(2-methyl-4-(N-(1-(piperidin-4-yl)ethyl)sulfamoyl)phenyl)thiophene-3-carboxamide hydrochloride] |
| 1.5 | Cc1ccccc1C(=O)Nc1c(Cl)cc(S(=O)(=O)N[C@H](C)C2CCNCC2)cc1Cl [Compound 305, (R)-N-(2,6-dichloro-4-(N-(1-(piperidin-4-yl)ethyl)sulfamoyl)phenyl)-2-methylbenzamide hydrochloride] |
| 158 | Cc1ccccc1C(=O)Nc1ccc(S(=O)(=O)N[C@H](C)C2CCNCC2)c(Cl)c1C [Compound 179A, (R)-N-(3-chloro-2-methyl-4-(N-(1-(piperidin-4-yl)eth-yl)sulfamoyl)phen-yl)-2-methylbenzamide, hydrochloride] |
| > 100000 | Cc1cc(S(=O)(=O)N[C@H](C)C2CCNCC2)ccc1NC(=O)c1ccncc1C [Compound 251A, (R)-3-methyl-N-(2-methyl-4-(N-(1-(piperidin-4-yl)ethyl)sulfamoyl)phenyl)isonicotinamide hydrochloride] |
| 15 | Cc1cc(S(=O)(=O)N[C@H](C)C2CCN(C(C)C)CC2)ccc1NC(=O)c1ccccc1C [Compound 200, (R)-N-(4-(N-(1-(1-isopropylpiperidin-4-yl)ethyl)sulfamoyl)-2-methylphenyl)-2-methylbenzamide] |
| > 10000 | O=S(=O)(NC1CCCCC1)c1ccc(-c2nc3ccccc3[nH]2)cc1 [Compound 108, 4-(1H-benzo[d]imidazol-2-yl)-N-cyclohexylbenzenesulfon-amide] |
| > 10000 | Cc1ccccc1C(=O)Nc1ccc(S(=O)(=O)N[C@H](C)C2CCNCC2)c(C(F)(F)F)c1 [Compound 189A, (R)-2-methyl-N-(4-(N-(1-(piperidin-4-yl)ethyl)sulfamoyl)-3-(trifluoromethyl)phenyl) benzamide hydrochloride] |
| > 10000 | CC(NS(=O)(=O)c1cccc(N2CCCCC2C(=O)O)c1)C1CCCCC1 (stereo not shown) [Compound 153, 1-(3-(N-(1-cyclohexylethyl)sulfam-oyl)phenyl)piperidine-2-carboxylic acid] |
| 3 | Cc1ccc(C(=O)Nc2ccc(S(=O)(=O)N[C@H](C)C3CCNCC3)cc2C)c(C)c1 [Compound 259A, (R)-2,4-dimethyl-N-(2-methyl-4-(N-(1-(piperidin-4-yl)ethyl)sulfamoyl)phenyl)benzamide hydrochloride] |
| 182 | Cc1ccccc1C(=O)Nc1ccc(S(=O)(=O)N[C@H](C)C2CCNCC2)cc1C(F)(F)F [Compound 186A, (R)-2-methyl-N-(4-(N-(1-(piperidin-4-yl)ethyl)sulfamoyl)-2-(trifluoromethyl)phenyl) benzamide hydrochloride] |
| > 10000 | Cc1cc(S(=O)(=O)N[C@H](C)C2CCNCC2)ccc1N1C(=O)c2ccccc2C1=O [Compound 122A, (R)-4-(1,3-dioxoisoindolin-2-yl)-3-methyl-N-(1-(piperidin-4-yl)ethyl)benzenesulfon-amide hydrochloride] |
| 224 | Cc1cc(S(=O)(=O)N[C@H](C)C2CCNCC2)ccc1NC1(c2ccccc2)COC1 [Compound 313, (R)-3-methyl-4-((3-phenyloxetan-3-yl)amino)-N-(1-(piperidin-4-yl)ethyl)benzene-sulfonamide] |
| > 10000 | CC(NS(=O)(=O)c1cccc(N2CCCC2C(=O)O)c1)C1CCCCC1 (stereo not shown) [Compound 152, 1-(3-(N-(1-cyclohexylethyl)sulfam-oyl)phenyl)pyrrolidine-2-carboxylic acid] |
| 279 | Cc1ccccc1C(=O)N(C)c1ccc(S(=O)(=O)N[C@H](C)C2CCNCC2)cc1C [Compound 231A, (R)-N,2-dimethyl-N-(2-methyl-4-(N-(1-(piperidin-4-yl)ethyl)sulfamoyl)phenyl)benzamide hydrochloride] |
| 870 | CC(NS(=O)(=O)c1ccc2nc(Nc3ccccc3)[nH]c2c1)C1CCCCC1 (stereo not shown) [Compound 145, N-(1-cyclohexylethyl)-2-(phenylamino)-1H-benzo[d]imidazole-6-sulfonamide] |
